From paper PMC11191095, “QSAR Reveals Decreased Lipophilicity of Polar Residues Determines the Selectivity of Antimicrobial Peptide Activity” (ACS Omega, 2024)
Where a SMILES comes first, the peptide text is derived from it.

Columns and labels:
Experiment in all cases: microbe, parasite or virus in culture
C. albicans NCPF 3281 = type: cell-based; conditions: C. albicans NCPF 3281
Outline: (§1)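 Peptides 128→2 μg/mL, 2-fold series; inoculum ~5 × 10^5 CFU/mL from overnight culture (OD600 0.01, mixed 1:1). MHB non-cation-adjusted for bacteria, RPMI 1640 + 2% glucose for fungi. 37 °C, 20 h, OD600. MIC50/MIC90 at 50%/90% inhibition; n ≥ 3.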

[1] = test system: C. parapsilosis NCPF 3209; type: cell-based; conditions: C. parapsilosis NCPF 3209
Outline: as §1

C. tropicalis NCPF 8760 = type: cell-based; conditions: C. tropicalis NCPF 8760
Outline: as §1

C. glabrata NCPF 8018 = type: cell-based; conditions: C. glabrata NCPF 8018
Outline: as §1

C. krusei NCPF 3876 = type: cell-based; conditions: C. krusei NCPF 3876
Outline: as §1

A. baumannii AYE = type: cell-based, Acinetobacter baumannii; conditions: A. baumannii AYE (R); shown in µM
Outline: as §1

A. baumannii ATCC 17978 = type: cell-based, Acinetobacter baumannii; conditions: A. baumannii ATCC 17978 (S); shown in µM
Outline: as §1

K. pneumoniae NCTC 13368 = type: cell-based, Klebsiella pneumoniae; conditions: K. pneumoniae NCTC 13368 (R)
Procedure: (§2) Antimicrobial activity was evaluated against a panel of 18 pathogens consisting of eight Gram-negative strains (E. coli NCTC 12923, E. coli LEC001, Pseudomonas aeruginosa PAO1, P. aeruginosa NCTC 13437, Acinetobacter baumannii ATCC 17978, A. baumannii AYE, Klebsiella pneumoniae M6, K. pneumoniae NCTC 13368), four Gram-positive strains (Staphylococcus aureus ATCC 9144, S. aureus NCTC 13616, S. aureus USA300, S. aureus 1199B) and six fungi (Candida auris TDG 1912, C. albicans NCPF 8018, C. krusei NCPF 3876, C. tropicalis NCPF 8760, and C. parapsilosis NCPF 3209). Pathogens were grown in noncation adjusted Mueller Hinton broth (MHB, for bacteria) or Roswell Park Memorial Institute (RPMI 1640) + 2% glucose (for fungi) at 37 °C with 180 rpm shaking and maintained on solid media (tryptic soy agar for bacteria and Sabouraud dextrose agar for fungi). For an antibiogram, see Suppl.
(§3) The 46 peptides were serially diluted (128 to 2 μg/mL) in media down polypropylene 96-well plates. Bacteria or fungi, diluted from an overnight culture to an OD600 of 0.01, were added to the serially diluted peptides at a 1:1 ratio resulting in a starting cell density of ∼5 × 10^5 CFU/mL. Plates were incubated at 37 °C for 20 h, and the optical density was determined spectrophotometrically at 600 nm. Minimum inhibition concentrations (MICs) were determined from a minimum of three biological repeats and are reported in μg/mL as well as μM. […] The MIC50 or MIC90 is defined as the lowest peptide concentration that results in 50% or 90% growth inhibition over a 20 h treatment period, respectively.

K. pneumoniae M6 = type: cell-based, Klebsiella pneumoniae; conditions: K. pneumoniae M6 (S)
Procedure: as §2, §3

E. coli NCTC 12923 = type: cell-based, Escherichia coli; conditions: E. coli NCTC 12923 (S); shown in µM
Outline: as §1

E. coli LEC001 = type: cell-based, Escherichia coli; conditions: E. coli LEC001 (R); shown in µM
Outline: as §1

C. auris TDG 1912 = type: cell-based, Candida auris; conditions: C. auris TDG 1912
Outline: as §1

P. aeruginosa PAO1 = type: cell-based, Pseudomonas aeruginosa; conditions: P. aeruginosa PAO1 (S); shown in µM
Procedure: as §2, §3

P. aeruginosa NCTC 13437 = type: cell-based, Pseudomonas aeruginosa; conditions: P. aeruginosa NCTC 13437 (R)
Procedure: as §2, §3

S. aureus (MRSA) 1199B = type: cell-based, Staphylococcus aureus; conditions: S. aureus (MRSA) 1199B (R)
Outline: as §1

[2] = test system: S. aureus (MRSA) NCTC 13616; type: cell-based, Staphylococcus aureus; conditions: S. aureus (MRSA) NCTC 13616 (R)
Outline: as §1

S. aureus (MRSA) USA300 = type: cell-based, Staphylococcus aureus; conditions: S. aureus (MRSA) USA300 (R)
Outline: as §1

[3] = test system: S. aureus (MSSA) ATCC 9144; type: cell-based, Staphylococcus aureus; conditions: S. aureus (MSSA) ATCC 9144 (S); shown in µM
Outline: as §1

[4] = 50% growth inhibition, RPMI 1640 + 2% glucose, 37 °C, 20 h
[5] = 90% growth inhibition, RPMI 1640 + 2% glucose, 37 °C, 20 h
[6] = MHB, 37 °C, 20 h, OD600, min. three biological repeats
[7] = 50% growth inhibition, RPMI 1640 + 2% glucose, 37 °C, 20 h, OD600
[8] = 90% growth inhibition, RPMI 1640 + 2% glucose, 37 °C, 20 h, OD600

CC(C)C[C@H](NC(=O)[C@H](CCCCN)NC(=O)[C@H](CCCCN)NC(=O)[C@H](C)NC(=O)[C@H](CC(C)C)NC(=O)[C@H](CCCCN)NC(=O)[C@H](CO)NC(=O)[C@H](CCCCN)NC(=O)[C@H](Cc1c[nH]c2ccccc12)NC(=O)[C@H](C)NC(=O)[C@H](CCCCN)NC(=O)[C@H](CCCCN)NC(=O)[C@H](CC(C)C)NC(=O)[C@H](Cc1ccccc1)NC(=O)[C@H](CO)NC(=O)CN)C(N)=O [PS-PB-16a] (H-GSFLKKAWKSKLAKKL-NH2)
Modal MIC50 (C. albicans NCPF 3281; [4]): > 128 µg/mL
Modal MIC90 (C. albicans NCPF 3281; [5]): > 128 µg/mL
Modal MIC50 (C. albicans NCPF 3281; shown in µM): > 67.8 µM
Modal MIC90 (C. albicans NCPF 3281; shown in µM): > 67.8 µM
Modal MIC50 [1, 4]: > 128 µg/mL
Modal MIC90 [1, 5]: > 128 µg/mL
Modal MIC50 ([1]; shown in µM): > 67.8 µM
Modal MIC90 ([1]; shown in µM): > 67.8 µM
Modal MIC50 (C. tropicalis NCPF 8760; [4]): > 128 µg/mL
Modal MIC90 (C. tropicalis NCPF 8760; [5]): > 128 µg/mL
Modal MIC50 (C. tropicalis NCPF 8760; shown in µM): > 67.8 µM
Modal MIC90 (C. tropicalis NCPF 8760; shown in µM): > 67.8 µM
Modal MIC50 (C. glabrata NCPF 8018; [4]): > 128 µg/mL
Modal MIC90 (C. glabrata NCPF 8018; [5]): > 128 µg/mL
Modal MIC50 (C. glabrata NCPF 8018; shown in µM): > 67.8 µM
Modal MIC90 (C. glabrata NCPF 8018; shown in µM): > 67.8 µM
Modal MIC50 (C. krusei NCPF 3876; [4]): > 128 µg/mL
Modal MIC90 (C. krusei NCPF 3876; [5]): > 128 µg/mL
Modal MIC50 (C. krusei NCPF 3876; shown in µM): > 67.8 µM
Modal MIC90 (C. krusei NCPF 3876; shown in µM): > 67.8 µM
Modal MIC (A. baumannii AYE): 17 µM
Modal MIC (A. baumannii ATCC 17978): 8.5 µM
Modal MIC (K. pneumoniae NCTC 13368; [6]): > 128 µg/mL
Modal MIC (K. pneumoniae NCTC 13368; shown in µM): > 67.8 µM
Modal MIC (K. pneumoniae M6; [6]): > 128 µg/mL
Modal MIC (K. pneumoniae M6; shown in µM): > 67.8 µM
Modal MIC (E. coli NCTC 12923): 8.5 µM
Modal MIC (E. coli LEC001): 33.9 µM
Modal MIC50 (C. auris TDG 1912; [7]): > 128 µg/mL
Modal MIC90 (C. auris TDG 1912; [8]): > 128 µg/mL
Modal MIC50 (C. auris TDG 1912; shown in µM): > 67.8 µM
Modal MIC90 (C. auris TDG 1912; shown in µM): > 67.8 µM
Modal MIC (P. aeruginosa PAO1): 33.9 µM
Modal MIC (P. aeruginosa NCTC 13437; shown in µM): 67.8 µM
Modal MIC (S. aureus (MRSA) 1199B; [6]): > 128 µg/mL
Modal MIC (S. aureus (MRSA) 1199B; shown in µM): > 67.8 µM
Modal MIC [2, 6]: > 128 µg/mL
Modal MIC ([2]; shown in µM): > 67.8 µM
Modal MIC (S. aureus (MRSA) USA300; [6]): > 128 µg/mL
Modal MIC (S. aureus (MRSA) USA300; shown in µM): > 67.8 µM
Modal MIC [3]: 17 µM

CC(C)C[C@H](NC(=O)[C@H](CCCCN)NC(=O)[C@H](CO)NC(=O)[C@H](CCCCN)NC(=O)[C@H](Cc1c[nH]c2ccccc12)NC(=O)[C@H](C)NC(=O)[C@H](CCCCN)NC(=O)[C@H](CCCCN)NC(=O)[C@H](CC(C)C)NC(=O)[C@H](Cc1ccccc1)NC(=O)[C@H](CO)NC(=O)CN)C(=O)N[C@@H](C)C(=O)N[C@@H](CCCCN)C(=O)N[C@@H](CCCCN)C(=O)N[C@@H](CC(C)C)C(=O)N[C@@H](CCCNC(=N)N)C(=O)N[C@@H](C)C(=O)N[C@@H](CCCCN)C(=O)NCC(N)=O [PS-PB-20a] (H-GSFLKKAWKSKLAKKLRAKG-NH2)
Modal MIC50 (C. albicans NCPF 3281; [4]): > 128 µg/mL
Modal MIC90 (C. albicans NCPF 3281; [5]): > 128 µg/mL
Modal MIC50 (C. albicans NCPF 3281; shown in µM): > 55.7 µM
Modal MIC90 (C. albicans NCPF 3281; shown in µM): > 55.7 µM
Modal MIC50 [1, 4]: > 128 µg/mL
Modal MIC90 [1, 5]: > 128 µg/mL
Modal MIC50 ([1]; shown in µM): > 55.7 µM
Modal MIC90 ([1]; shown in µM): > 55.7 µM
Modal MIC50 (C. tropicalis NCPF 8760; shown in µM): 27.8 µM
Modal MIC90 (C. tropicalis NCPF 8760; shown in µM): 27.8 µM
Modal MIC50 (C. glabrata NCPF 8018; [4]): > 128 µg/mL
Modal MIC90 (C. glabrata NCPF 8018; [5]): > 128 µg/mL
Modal MIC50 (C. glabrata NCPF 8018; shown in µM): > 55.7 µM
Modal MIC90 (C. glabrata NCPF 8018; shown in µM): > 55.7 µM
Modal MIC90 (C. krusei NCPF 3876; [5]): > 128 µg/mL
Modal MIC50 (C. krusei NCPF 3876; shown in µM): 55.7 µM
Modal MIC90 (C. krusei NCPF 3876; shown in µM): > 55.7 µM
Modal MIC (A. baumannii AYE): 13.9 µM
Modal MIC (A. baumannii ATCC 17978): 3.5 µM
Modal MIC (K. pneumoniae NCTC 13368; [6]): > 128 µg/mL
Modal MIC (K. pneumoniae NCTC 13368; shown in µM): > 55.7 µM
Modal MIC (K. pneumoniae M6; [6]): > 128 µg/mL
Modal MIC (K. pneumoniae M6; shown in µM): > 55.7 µM
Modal MIC (E. coli NCTC 12923): 13.9 µM
Modal MIC (E. coli LEC001): 27.8 µM
Modal MIC50 (C. auris TDG 1912; [7]): > 128 µg/mL
Modal MIC90 (C. auris TDG 1912; [8]): > 128 µg/mL
Modal MIC50 (C. auris TDG 1912; shown in µM): > 55.7 µM
Modal MIC90 (C. auris TDG 1912; shown in µM): > 55.7 µM
Modal MIC (P. aeruginosa PAO1): 55.7 µM
Modal MIC (P. aeruginosa NCTC 13437; [6]): > 128 µg/mL
Modal MIC (P. aeruginosa NCTC 13437; shown in µM): > 55.7 µM
Modal MIC (S. aureus (MRSA) 1199B; [6]): > 128 µg/mL
Modal MIC (S. aureus (MRSA) 1199B; shown in µM): > 55.7 µM
Modal MIC [2, 6]: > 128 µg/mL
Modal MIC ([2]; shown in µM): > 55.7 µM
Modal MIC (S. aureus (MRSA) USA300; [6]): > 128 µg/mL
Modal MIC (S. aureus (MRSA) USA300; shown in µM): > 55.7 µM
Modal MIC [3]: 3.5 µM
